Active and inactive are the calls of the source.
Key:
[1] = inhibitors of firefly luciferase expression or activity, dose response, H4 neuroglioma cells, luminescence (AID 1990); type: functional, cell-based
[2] = luciferase reporter signal reduction – luminescence, H4-C neuroglioblastoma cells, dose response (AID 2458); type: functional, cell-based;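 also: H4 neuroglioblastoma cells stably carrying a luciferase reporter gene fusion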
[3] = cells; type: functional, cell-based
[4] = inhibitors of SNCA 5'UTR-driven reporter translation, confirmation, H4 neuroglioma cells, luminescence (AID 1988); type: functional, cell-based
[5] = Luminescence-based dose response cell-based high throughput screening assay for cytotoxic compounds using the IEC-6 intestinal epithelial cell line. [Related pubchem assays: 1858 (Summary AID.), 1825 (Counterscreen.), 1907 (Confirmation screen.)]; type: functional
[6] = inhibitors of SNCA 5'UTR-driven translation, confirmation, luminescence, H4 neuroglioblastoma cells, dose confirmation (AID 2454); type: functional, cell-based;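 also: H4 neuroglioblastoma cells carrying an alpha-synuclein 5'UTR luciferase reporter; potency for inhibition of the luciferase signal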
[7] = cytotoxicity in HEK-293T cells, dose response, cytotoxicity control for TCR NF-kB inhibitor project, luminescence, T-cell screen hits (AID 489026); type: functional, cell-based;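 also: cells exposed to compound about 14 hours before the viability readout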
[8] = tested on: Staphylococcus aureus; experiment: Inhibitors of Bacterial Quorum Sensing Structure Activity Relationship (SAR) Analysis: Dose Response Assay. [Related pubchem assays: 700, 527 ]; type: functional, organism-based
[9] = biological target: T1, RNA-binding protein pos-1 (Caenorhabditis elegans, UniProt G5EF15); experiment: inhibitors of POS-1/mex-3 RNA binding, dose response, biochemical, fluorescence polarization (AID 1964);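 also: purified POS-1 fused to maltose binding protein made in E. coli; potency of compounds blocking POS-1 binding to fluorescent RNA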
T1 sequence (G5EF15 whole entry): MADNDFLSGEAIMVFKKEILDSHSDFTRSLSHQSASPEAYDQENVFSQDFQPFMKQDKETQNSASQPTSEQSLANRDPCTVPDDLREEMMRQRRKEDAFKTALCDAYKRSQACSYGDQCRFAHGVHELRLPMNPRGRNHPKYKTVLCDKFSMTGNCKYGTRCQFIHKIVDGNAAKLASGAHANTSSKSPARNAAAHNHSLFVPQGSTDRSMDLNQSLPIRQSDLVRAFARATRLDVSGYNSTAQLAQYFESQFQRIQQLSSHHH

[10] = biological target: T2, Aspartyl aminopeptidase (Plasmodium falciparum 3D7, UniProt Q8I2J3)
T2 sequence (Q8I2J3 whole entry): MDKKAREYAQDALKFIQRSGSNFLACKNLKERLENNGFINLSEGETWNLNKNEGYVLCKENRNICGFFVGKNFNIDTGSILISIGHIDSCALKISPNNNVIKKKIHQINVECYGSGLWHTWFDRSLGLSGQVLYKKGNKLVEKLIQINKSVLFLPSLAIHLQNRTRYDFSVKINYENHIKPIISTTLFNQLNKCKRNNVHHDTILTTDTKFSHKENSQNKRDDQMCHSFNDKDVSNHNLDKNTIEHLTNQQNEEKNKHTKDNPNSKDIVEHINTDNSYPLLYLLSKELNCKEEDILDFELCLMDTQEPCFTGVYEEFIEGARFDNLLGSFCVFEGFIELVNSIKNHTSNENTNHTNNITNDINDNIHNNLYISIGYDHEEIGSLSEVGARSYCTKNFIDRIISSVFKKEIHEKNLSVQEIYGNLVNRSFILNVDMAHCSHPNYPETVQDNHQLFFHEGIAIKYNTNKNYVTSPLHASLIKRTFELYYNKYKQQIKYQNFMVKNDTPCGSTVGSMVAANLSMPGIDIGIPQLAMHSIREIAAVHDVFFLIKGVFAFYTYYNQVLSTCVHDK

[11] = biological target: Procathepsin L (Homo sapiens, UniProt P07711)
[12] = biological target: T3, Zinc finger protein mex-5 (Caenorhabditis elegans, UniProt Q9XUB2); experiment: MEX-5/TCR-2 RNA interaction inhibitors, dose response, biochemical, C. elegans, fluorescence polarization (AID 1960)
T3 sequence (Q9XUB2 whole entry): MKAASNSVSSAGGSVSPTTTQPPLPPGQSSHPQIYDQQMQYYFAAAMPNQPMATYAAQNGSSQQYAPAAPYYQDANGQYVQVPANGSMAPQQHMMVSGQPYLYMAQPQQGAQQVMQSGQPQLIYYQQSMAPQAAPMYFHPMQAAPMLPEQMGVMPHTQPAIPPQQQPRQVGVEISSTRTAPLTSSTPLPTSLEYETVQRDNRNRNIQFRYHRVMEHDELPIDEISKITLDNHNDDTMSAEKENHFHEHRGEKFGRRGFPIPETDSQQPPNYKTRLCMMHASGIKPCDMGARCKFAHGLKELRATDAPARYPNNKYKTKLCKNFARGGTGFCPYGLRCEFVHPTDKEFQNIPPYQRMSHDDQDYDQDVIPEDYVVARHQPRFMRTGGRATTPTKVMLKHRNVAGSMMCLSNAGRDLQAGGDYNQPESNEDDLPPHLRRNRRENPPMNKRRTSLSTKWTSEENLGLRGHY

[13] = cytotoxicity in HPDE-C7 cells, cell-based, fluorescence, HTS (AID 430); type: functional; settings: Homo sapiens
[14] = biological target: Large T antigen (Simian virus 40, UniProt P03070); type: functional, Betapolyomavirus macacae;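 also: Confirmatory-stage PubChem screen for compounds that inhibit SV40 T antigen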
Sequence of Large T antigen (P03070 whole entry): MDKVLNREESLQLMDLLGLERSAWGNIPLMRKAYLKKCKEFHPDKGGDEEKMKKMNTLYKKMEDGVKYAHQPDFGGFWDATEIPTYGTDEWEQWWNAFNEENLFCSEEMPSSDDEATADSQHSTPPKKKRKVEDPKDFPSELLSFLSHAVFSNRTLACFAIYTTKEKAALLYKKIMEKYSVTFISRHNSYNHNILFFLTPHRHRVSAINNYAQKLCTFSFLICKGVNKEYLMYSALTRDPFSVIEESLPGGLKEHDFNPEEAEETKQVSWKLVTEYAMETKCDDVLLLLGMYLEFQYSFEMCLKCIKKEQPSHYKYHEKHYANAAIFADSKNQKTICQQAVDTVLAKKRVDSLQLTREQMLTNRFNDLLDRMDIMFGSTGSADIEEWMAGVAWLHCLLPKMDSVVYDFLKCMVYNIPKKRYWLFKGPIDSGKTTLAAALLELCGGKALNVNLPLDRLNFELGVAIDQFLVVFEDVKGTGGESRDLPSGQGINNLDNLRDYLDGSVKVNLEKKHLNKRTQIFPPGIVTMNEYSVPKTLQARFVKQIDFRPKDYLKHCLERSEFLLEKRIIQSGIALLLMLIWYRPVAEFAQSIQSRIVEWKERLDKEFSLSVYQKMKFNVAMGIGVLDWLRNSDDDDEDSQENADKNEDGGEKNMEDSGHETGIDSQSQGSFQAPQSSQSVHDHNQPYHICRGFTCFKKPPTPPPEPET

[15] = cytotoxicity in KRAS-transformed pancreatic duct cells, primary screen, cell-based, fluorescence, HTS (AID 431); type: functional; settings: Homo sapiens;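 also: cell line used: HPDE-C7K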
[16] = biological target: FAD-linked sulfhydryl oxidase ALR (Homo sapiens, UniProt P55789); experiment: inhibitors of human ALR sulfhydryl oxidase, dose response, biochemical, H2O2 detection, luminescence, cherry-pick (AID 493248)
Sequence of FAD-linked sulfhydryl oxidase ALR (P55789 whole entry): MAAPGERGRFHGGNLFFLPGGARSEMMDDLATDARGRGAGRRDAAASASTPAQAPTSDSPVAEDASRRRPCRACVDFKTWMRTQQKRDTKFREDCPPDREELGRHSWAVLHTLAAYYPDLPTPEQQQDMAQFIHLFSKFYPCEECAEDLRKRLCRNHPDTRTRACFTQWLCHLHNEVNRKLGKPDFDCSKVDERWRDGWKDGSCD

[17] = THP-1 cell cytotoxicity, dose response, cytotoxicity control for Vif-APOBEC3G degradation inhibitor project, THP-1 cells (AID 1117359); type: functional; settings: Human immunodeficiency virus 1, THP-1
[18] = tested on: HEK293; experiment: Fluorescence-based counterscreen for potentiators or agonists of NPY-Y2: cell-based high-throughput dose response assay to identify inhibitors of cyclic nucleotide gated ion channel (CNGC) activity. In this assay, the parental HEK293 cell line transfected with a cyclic-nucleotide gated ion channel (CNGC)-based cAMP sensor is used to measure inhibition of isoproterenol-induced CNGC activity by test compound.; type: functional; settings: Homo sapiens
[19] = biological target: Lysosomal acid glucosylceramidase (Homo sapiens, UniProt P04062); experiment: Dose response cell-based high throughput screening assay to identify enhancers of beta-glucosidase activity. [Related pubchem assays: 784 ]; type: functional
Sequence of Lysosomal acid glucosylceramidase (P04062 whole entry): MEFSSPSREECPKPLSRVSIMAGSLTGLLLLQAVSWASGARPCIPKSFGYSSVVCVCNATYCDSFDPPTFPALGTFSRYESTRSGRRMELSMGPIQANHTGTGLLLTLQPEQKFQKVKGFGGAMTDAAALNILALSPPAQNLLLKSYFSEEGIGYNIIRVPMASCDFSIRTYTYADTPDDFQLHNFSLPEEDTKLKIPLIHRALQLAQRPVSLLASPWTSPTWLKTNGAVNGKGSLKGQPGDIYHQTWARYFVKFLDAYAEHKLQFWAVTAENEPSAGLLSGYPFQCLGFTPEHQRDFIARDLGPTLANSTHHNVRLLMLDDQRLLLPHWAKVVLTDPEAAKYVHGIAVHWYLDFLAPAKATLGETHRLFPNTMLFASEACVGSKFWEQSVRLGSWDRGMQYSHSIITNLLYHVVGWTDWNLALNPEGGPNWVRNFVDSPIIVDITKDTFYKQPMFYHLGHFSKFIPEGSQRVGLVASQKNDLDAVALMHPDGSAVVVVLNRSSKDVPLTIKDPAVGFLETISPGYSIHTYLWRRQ

[20] = biological target: T4, Neuropeptide Y receptor type 2 (Homo sapiens, UniProt P49146); experiment: Fluorescence-based cell-based high-throughput dose response assay for agonists of NPY-Y2. [Related pubchem assays: 1703 (Screening assay (CNGC inhibitors).), 1359 (Screening assay (NPY-Y2 potentiators or agonists).), 1304 (Screening assay (NPY-Y1 potentiators or agonists).), 1710 (Screening assay (NPY-Y2 agonists).), 1791 (Summary AID.)]; type: functional
T4 sequence (P49146 whole entry): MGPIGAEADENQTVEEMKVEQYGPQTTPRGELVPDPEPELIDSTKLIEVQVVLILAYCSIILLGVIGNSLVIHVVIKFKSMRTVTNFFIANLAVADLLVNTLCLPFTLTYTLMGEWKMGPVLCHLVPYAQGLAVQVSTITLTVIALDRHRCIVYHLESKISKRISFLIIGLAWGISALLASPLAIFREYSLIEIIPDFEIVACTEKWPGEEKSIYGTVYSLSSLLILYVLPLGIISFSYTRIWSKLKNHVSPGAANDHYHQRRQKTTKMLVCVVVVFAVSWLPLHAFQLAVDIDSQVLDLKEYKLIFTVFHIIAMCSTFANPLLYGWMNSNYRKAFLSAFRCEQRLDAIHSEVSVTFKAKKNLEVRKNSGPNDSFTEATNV

[21] = biological target: T5, Neuropeptide Y receptor type 1 (Homo sapiens, UniProt P25929); experiment: Fluorescence-based counterscreen for agonists of NPY-Y2: cell-based high-throughput dose response assay for agonists of NPY-Y1.; type: functional
T5 sequence (P25929 whole entry): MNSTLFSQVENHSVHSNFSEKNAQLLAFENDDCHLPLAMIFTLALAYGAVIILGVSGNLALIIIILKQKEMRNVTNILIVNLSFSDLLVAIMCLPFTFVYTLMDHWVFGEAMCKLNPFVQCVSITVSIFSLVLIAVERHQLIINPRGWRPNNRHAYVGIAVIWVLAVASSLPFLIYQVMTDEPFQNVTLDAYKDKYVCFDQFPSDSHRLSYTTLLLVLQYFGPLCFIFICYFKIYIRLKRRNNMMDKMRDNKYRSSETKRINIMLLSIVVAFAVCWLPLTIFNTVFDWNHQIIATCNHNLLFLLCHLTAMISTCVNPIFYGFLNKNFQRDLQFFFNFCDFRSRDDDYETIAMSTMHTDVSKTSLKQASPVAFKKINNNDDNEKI

[22] = tested on: HEK293; experiment: PMA/Ionomycin induced NF-kB luciferase assay in 293- NF-kB-Luc stable cells. [Related pubchem assays: 1299, 1270, 1295, 1375, 1287, 1281, 1293, 1291, 1289, 1280, 465, 1364, 1282, 1372, 1365, 1370, 1367, 1366, 1269, 1373, 1292, 1290, 1302, 1371, 1283, 1271, 1294, 1374, 1368, 1369 ]; type: functional, cell-based; settings: Homo sapiens
[23] = biological target: T6, Luciferin 4-monooxygenase (Photinus pyralis, UniProt P08659); experiment: In vitro luciferase assay using purified luciferase. [Related pubchem assays: 1299, 1270, 1295, 1375, 1287, 1281, 1293, 1291, 1289, 1280, 465, 1364, 1282, 1372, 1365, 1370, 1367, 1366, 1266, 1373, 1292, 1290, 1302, 1371, 1283, 1271, 1294, 1374, 1368, 1369 ]
T6 sequence (P08659 whole entry): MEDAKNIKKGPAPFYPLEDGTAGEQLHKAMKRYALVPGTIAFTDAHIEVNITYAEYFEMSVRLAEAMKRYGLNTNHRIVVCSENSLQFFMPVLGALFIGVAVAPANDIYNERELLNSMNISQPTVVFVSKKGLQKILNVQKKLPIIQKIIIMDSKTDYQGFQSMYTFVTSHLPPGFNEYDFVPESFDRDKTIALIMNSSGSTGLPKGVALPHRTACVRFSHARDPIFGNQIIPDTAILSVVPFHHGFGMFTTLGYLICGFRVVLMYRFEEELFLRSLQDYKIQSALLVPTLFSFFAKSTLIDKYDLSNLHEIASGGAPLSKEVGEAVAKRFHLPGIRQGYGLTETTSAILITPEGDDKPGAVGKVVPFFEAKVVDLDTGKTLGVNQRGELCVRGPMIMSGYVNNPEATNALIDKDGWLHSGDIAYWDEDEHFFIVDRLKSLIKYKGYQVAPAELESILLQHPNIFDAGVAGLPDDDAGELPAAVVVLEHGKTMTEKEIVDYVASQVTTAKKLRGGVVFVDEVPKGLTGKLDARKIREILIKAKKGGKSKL

[24] = tested on: HEK293; experiment: Cytotoxicity assay in HEK293 cells. [Related pubchem assays (depositor defined):AID1266, AID1269, AID1270, AID1271, AID1280, AID1281, AID1282, AID1283, AID1287, AID1289, AID1290, AID1291, AID1292, AID1293, AID1294, AID1295, AID1299, AID1302, AID1364, AID1365, AID1366, AID1367, AID1369, AID1370, AID1371, AID1372, AID1373, AID1374, AID1375, AID1384 …; type: functional, cell-based; settings: Homo sapiens
[25] = biological target: Mothers against decapentaplegic homolog 3 (Homo sapiens, UniProt P84022); experiment: Smad3 binding inhibitors, lysate ELISA, dose response, cell lysate, secondary confirmation, chemiluminescent ELISA, HEK293 lysate (AID 1058); type: functional
Sequence of Mothers against decapentaplegic homolog 3 (P84022 whole entry): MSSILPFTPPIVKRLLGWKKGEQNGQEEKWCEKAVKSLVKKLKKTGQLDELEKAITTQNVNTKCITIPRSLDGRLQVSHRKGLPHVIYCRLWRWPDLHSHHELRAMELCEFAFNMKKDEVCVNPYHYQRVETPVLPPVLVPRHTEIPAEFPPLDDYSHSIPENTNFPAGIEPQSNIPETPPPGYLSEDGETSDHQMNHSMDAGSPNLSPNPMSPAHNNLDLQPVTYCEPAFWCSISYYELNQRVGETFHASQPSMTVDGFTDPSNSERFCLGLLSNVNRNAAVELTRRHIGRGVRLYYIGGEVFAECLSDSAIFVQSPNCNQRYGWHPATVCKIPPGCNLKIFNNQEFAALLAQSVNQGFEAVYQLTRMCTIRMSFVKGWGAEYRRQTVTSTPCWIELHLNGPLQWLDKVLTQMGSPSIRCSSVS

[26] = tested on: Streptococcus; experiment: Luminescence Microorganism-Based Dose Response Follow up to Identify Compounds Cytotoxic to Streptococcus. [Related pubchem assays: 1677 (Project Summary), 1915, 1914, 1902 (Retest at Dose), 1900 (Counter Screen), 1662 (Primary HTS)]; type: functional, organism-based
[27] = biological target: Transitional endoplasmic reticulum ATPase (Homo sapiens, UniProt P55072, C522A); experiment: C522A mutant p97 ATPase inhibitors, dose response, counter-screen for p97 inhibitor project, biochemical, luminescence (AID 1544)
Sequence of Transitional endoplasmic reticulum ATPase (Homo sapiens, UniProt P55072, C522A) (P55072 2-806 C522A limits assumed): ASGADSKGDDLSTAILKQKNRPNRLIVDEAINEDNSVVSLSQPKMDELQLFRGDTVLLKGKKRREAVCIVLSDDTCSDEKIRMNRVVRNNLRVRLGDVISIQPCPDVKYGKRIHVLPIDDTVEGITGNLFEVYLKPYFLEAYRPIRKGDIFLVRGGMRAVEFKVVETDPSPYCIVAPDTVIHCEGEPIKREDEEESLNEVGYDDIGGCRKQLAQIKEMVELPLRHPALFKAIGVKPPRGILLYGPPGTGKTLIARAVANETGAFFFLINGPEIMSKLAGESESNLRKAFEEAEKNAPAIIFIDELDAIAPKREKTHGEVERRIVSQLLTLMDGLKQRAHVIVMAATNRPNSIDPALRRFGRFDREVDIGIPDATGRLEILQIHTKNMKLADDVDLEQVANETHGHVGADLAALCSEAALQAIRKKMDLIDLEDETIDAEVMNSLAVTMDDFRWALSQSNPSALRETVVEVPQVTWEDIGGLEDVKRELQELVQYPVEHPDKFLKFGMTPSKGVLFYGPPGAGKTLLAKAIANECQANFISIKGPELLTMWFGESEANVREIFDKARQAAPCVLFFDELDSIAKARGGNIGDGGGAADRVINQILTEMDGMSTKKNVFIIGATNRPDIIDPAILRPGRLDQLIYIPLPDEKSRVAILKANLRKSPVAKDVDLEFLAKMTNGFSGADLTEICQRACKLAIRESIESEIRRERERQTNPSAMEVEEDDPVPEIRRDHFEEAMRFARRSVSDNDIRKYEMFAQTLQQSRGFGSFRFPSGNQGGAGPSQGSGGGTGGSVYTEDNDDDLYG

[28] = biological target: Transitional endoplasmic reticulum ATPase (Homo sapiens, UniProt P55072); experiment: p97 ATPase inhibitors, dose response, biochemical (AID 1534)
[29] = biological target: T6, Luciferin 4-monooxygenase; experiment: Counter Screen for Luciferase-based Assay Positives. [Related pubchem assays: 620, 618, 411 ]
[30] = tested on: HT-1080; experiment: cytotoxicity in HT1080 fibrosarcoma cells, cell-based, fluorescence readout (AID 620); type: functional; settings: Homo sapiens
[31] = biological target: Mucolipin-3 (Homo sapiens, UniProt Q8TDD5); experiment: Dose response cell-based high-throughput screening assay for agonists of the transient receptor potential channel ML3 (TRPML3). [Related pubchem assays: 1526, 1424, 1448 ]; type: functional
[32] = biological target: Ion channel NompC (Danio rerio, UniProt Q7T1G6); experiment: Fluorescence counterscreen assay for TRPML3 agonists: dose response cell-based high-throughput screening assay to identify agonists of the transient receptor potential channel N1 (TRPN1). [Related pubchem assays: 1526, 1424, 1448 ]; type: functional
Sequence of Ion channel NompC (Q7T1G6 whole entry): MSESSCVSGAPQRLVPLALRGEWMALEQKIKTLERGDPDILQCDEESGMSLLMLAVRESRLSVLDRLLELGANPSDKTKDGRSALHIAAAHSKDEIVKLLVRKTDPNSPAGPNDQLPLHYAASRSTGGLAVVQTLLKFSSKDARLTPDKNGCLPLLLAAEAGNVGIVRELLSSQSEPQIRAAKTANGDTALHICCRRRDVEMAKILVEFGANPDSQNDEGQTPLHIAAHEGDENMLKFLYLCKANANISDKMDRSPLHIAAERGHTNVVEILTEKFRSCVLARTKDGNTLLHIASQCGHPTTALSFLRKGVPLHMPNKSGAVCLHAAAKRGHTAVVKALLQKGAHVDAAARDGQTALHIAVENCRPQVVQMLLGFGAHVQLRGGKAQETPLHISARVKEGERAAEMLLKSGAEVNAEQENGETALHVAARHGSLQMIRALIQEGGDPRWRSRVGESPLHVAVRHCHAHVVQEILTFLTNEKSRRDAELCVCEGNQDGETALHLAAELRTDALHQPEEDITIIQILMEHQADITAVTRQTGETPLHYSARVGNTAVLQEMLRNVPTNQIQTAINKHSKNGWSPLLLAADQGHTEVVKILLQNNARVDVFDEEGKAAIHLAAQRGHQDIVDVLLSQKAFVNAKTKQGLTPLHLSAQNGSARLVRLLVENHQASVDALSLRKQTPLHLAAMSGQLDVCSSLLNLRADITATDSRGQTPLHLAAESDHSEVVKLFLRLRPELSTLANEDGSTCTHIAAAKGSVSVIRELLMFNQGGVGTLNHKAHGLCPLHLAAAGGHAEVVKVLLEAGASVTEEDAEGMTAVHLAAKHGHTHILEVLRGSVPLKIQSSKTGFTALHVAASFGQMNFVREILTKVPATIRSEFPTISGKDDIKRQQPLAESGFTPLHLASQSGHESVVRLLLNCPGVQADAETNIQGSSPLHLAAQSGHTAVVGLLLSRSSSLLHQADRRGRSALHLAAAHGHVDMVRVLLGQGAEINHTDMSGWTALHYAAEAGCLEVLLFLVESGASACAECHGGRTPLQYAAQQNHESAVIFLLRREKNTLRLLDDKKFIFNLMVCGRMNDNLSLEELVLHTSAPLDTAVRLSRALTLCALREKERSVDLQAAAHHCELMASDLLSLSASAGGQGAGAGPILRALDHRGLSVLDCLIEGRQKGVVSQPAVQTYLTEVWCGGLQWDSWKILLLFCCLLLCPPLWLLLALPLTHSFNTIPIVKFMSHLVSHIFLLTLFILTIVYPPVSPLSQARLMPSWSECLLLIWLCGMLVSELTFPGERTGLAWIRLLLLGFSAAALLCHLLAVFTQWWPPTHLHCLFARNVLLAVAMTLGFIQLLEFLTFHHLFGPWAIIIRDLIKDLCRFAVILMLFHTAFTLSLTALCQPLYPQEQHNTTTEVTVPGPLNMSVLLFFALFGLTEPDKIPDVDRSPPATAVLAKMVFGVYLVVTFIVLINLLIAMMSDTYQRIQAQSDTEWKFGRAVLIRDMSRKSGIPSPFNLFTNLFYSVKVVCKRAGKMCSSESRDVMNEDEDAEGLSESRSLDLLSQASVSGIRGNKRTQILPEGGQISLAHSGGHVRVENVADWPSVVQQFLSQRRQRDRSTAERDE

Cc1ccc(Nc2nc(-c3c(C)nc4ccccn34)cs2)cc1
EC50 [1]: < 0.1 µM (active) | EC50 [2]: 0.021 µM (active) | EC50 [3]: 0.027 µM (active) | EC50 [4]: < 0.1 µM (active) | IC50 [5]: 0.0895 µM (active) | EC50 [6]: 0.013 µM (active) | IC50 [7]: > 80 µM (inactive)

Cc1ccc(C)c(S(=O)(=O)c2nnn3c2[nH]c(=O)c2sccc23)c1
IC50 [8]: 5.17 µM (active)

Oc1ccc(/C=C/c2cc(O)cc(O)c2)cc1 [RESVERATROL]
EC50 [9]: > 300 µM (not active) | IC50 [10]: 2.24 µM (active) | IC50 [11]: > 59.6 µM (not active) | EC50 [12]: 163 µM (active) | EC50 [13]: 6.97 µM (active) | IC50 [14]: 26.2 µM (active) | EC50 [15]: > 20 µM (not active) | AC50 [16]: 4.02 µM (active) | CC50 [17]: 26.3 µM (active)

O=C(NCCCn1ccnc1)Nc1ccc(Cl)cc1
EC50 [18]: > 35.4 µM (not active) | EC50 [19]: > 50 µM (not active) | EC50 [20]: > 35.4 µM (not active) | EC50 [21]: > 35.4 µM (not active)

C/C(=N\NC(=O)c1cccc([N+](=O)[O-])c1)c1ccccn1
EC50 [22]: 6.12 µM (not active) | EC50 [23]: > 8 µM (not active) | EC50 [24]: 10.2 µM (inactive)

O=C1OC2(c3ccc(O)c(O)c3Oc3c2ccc(O)c3O)c2c(Cl)c(Cl)c(Cl)c(Cl)c21
IC50 [25]: 12.4 µM (active)

O=C(c1ccc(F)cc1)n1c2ccccc2c2ccccc21
EC50 [26]: > 500 µM (not active)

COc1ccc(/C=N/Nc2nnc(-c3ccccc3)c(O)n2)cc1
IC50 [27]: > 50 µM (not active) | IC50 [28]: > 50 µM (not active)

Cc1nn2cc(-c3ccccc3)nc2s1
EC50 [29]: 0.7 µM (active) | EC50 [30]: > 50 µM (not active)

Cc1cc(C)c(C(=O)c2ccc(C(=O)N(C(C)C)C(C)C)cc2)c(C)c1
EC50 [31]: 2.24 µM (active) | EC50 [32]: > 29.9 µM (not active)

From ChEMBL document CHEMBL1201862, “PubChem BioAssay data set” (2004)
